The results in this text go back to ChEMBL document CHEMBL5506050, “Discovery of Oral AMP-Activated Protein Kinase Activators for Treating Hyperlipidemia” (J Med Chem, 2024).

Assay [1] concerns the target AMP-activated protein kinase (AMPK) alpha-1/beta-1/gamma-1 (Homo sapiens) (UniProt P54619+Q9Y478+Q13131). Kind of assay: Activation of AMPK alpha1/AMPKbeta1/AMPKgamma1 (unknown origin) using SAMS peptide as substrate assessed as relative enzyme activity at 10 uM incubated for 20 mins in presence of [gamma-32P]ATP by scintillation counter analysis. The format is protein-complex assay. The following applies: filed as activator.

The next assay has as its system Mus musculus. Kind of assay: Lipid lowering effect on high-fat diet-fed Kunming mouse assessed as serum total cholesterol level at 50 mg/kg, po qd via gavage for 7 days consecutively (reference value: 159.3 +/- 11.5 mg/dl). Format: functional. Conditions: time 7 day.

SMILES strings stand for the structures.

AMP-activated protein kinase (AMPK) alpha-1/beta-1/gamma-1 (Homo sapiens), sequence (P54619 whole entry): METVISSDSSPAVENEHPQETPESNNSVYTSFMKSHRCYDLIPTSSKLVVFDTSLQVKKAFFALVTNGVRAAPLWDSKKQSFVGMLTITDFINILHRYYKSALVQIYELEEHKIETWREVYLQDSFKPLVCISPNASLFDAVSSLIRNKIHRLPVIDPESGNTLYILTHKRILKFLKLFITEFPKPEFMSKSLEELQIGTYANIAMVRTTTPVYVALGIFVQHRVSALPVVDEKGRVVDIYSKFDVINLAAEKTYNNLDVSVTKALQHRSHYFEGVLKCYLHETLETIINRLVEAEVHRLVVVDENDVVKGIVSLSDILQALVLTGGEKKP
AMP-activated protein kinase (AMPK) alpha-1/beta-1/gamma-1 (Homo sapiens), sequence (Q13131 whole entry partner): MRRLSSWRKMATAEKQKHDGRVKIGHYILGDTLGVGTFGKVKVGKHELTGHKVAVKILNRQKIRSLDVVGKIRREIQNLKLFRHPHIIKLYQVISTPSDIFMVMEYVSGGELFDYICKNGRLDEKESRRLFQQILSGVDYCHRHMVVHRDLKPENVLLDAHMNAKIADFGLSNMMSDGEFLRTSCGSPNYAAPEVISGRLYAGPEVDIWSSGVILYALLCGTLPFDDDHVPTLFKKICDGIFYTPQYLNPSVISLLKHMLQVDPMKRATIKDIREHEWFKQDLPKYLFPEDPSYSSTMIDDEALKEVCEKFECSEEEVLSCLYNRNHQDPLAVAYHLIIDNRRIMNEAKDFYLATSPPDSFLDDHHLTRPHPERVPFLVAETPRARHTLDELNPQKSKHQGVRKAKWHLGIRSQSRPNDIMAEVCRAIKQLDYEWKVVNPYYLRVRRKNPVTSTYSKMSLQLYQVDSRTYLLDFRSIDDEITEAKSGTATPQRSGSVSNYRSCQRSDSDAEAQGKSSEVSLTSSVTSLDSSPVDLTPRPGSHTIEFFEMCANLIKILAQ
AMP-activated protein kinase (AMPK) alpha-1/beta-1/gamma-1 (Homo sapiens), sequence (Q9Y478 2-270 partner limits assumed): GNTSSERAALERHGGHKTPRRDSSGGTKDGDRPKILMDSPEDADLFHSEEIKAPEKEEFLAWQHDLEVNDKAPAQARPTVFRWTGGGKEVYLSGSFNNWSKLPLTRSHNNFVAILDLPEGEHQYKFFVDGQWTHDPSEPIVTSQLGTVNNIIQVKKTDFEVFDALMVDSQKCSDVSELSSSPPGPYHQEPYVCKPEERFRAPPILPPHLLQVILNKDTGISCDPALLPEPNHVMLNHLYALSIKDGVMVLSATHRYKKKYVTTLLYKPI

As for `CC(C)(C)C(=O)OC[C@H]1O[C@@H](n2cnc3c(NCc4ccc(O)c(O)c4)ncnc32)[C@H](O)[C@@H]1O`, the results for the Activity (in assay [1]; in the assay with Mus musculus) were 0.98 and 115 mg/dL, respectively.
For `CC(=O)Nc1cccc(Nc2ncnc3c2ncn3[C@@H]2O[C@H](CO)[C@@H](O)[C@H]2O)c1`, the Activity turned out to be 0.93 in assay [1] and 154.7 mg/dL with Mus musculus.
On to `CC(=O)c1cccc(Nc2ncnc3c2ncn3[C@@H]2O[C@H](CO)[C@@H](O)[C@H]2O)c1`, for which the Activity came out at 0.62 in assay [1] and 157.5 mg/dL with Mus musculus.
For the compound `Cc1cccc(Nc2ncnc3c2ncn3[C@@H]2O[C@H](CO)[C@@H](O)[C@H]2O)c1`, the Activity in assay [1] was 0.71; in the assay with Mus musculus, 149.3 mg/dL.
`CCCCCCCCCC(=O)OC[C@H]1O[C@@H](n2cnc3c(NCc4ccc(OC)c(OC)c4)ncnc32)[C@H](O)[C@@H]1O`: the Activity in assay [1] was found to be 1.39; in the assay on Mus musculus, 160.2 mg/dL.
Turning to `OCCOCCNc1ncnc2c1ncn2[C@@H]1O[C@H](CO)[C@@H](O)[C@H]1O`, the Activity in assay [1] stood at 0.89.
On to `COc1cccc(Nc2ncnc3c2ncn3[C@@H]2O[C@H](CO)[C@@H](O)[C@H]2O)c1`, for which the values for the Activity (in assay [1]; in the assay with Mus musculus) were 0.75 and 138.1 mg/dL, respectively.
The corresponding values for `CC(=O)OC[C@H]1O[C@@H](n2cnc3c(NCc4ccc(O)cc4)ncnc32)[C@H](O)[C@@H]1O` are 1.86 and 117 mg/dL.
As for `COc1cccc(CNc2ncnc3c2ncn3C(C)(C)CC(C)=O)c1OC`, in assay [1], the Activity was determined as 1.1.
Consider `CC(=O)OC[C@H]1O[C@@H](n2cnc3c(Nc4cccc(-c5nnn[nH]5)c4)ncnc32)[C@H](OC(C)=O)[C@@H]1OC(C)=O`, for which the Activity in assay [1] amounted to 1.32.
Consider `CC(C)OCCNc1ncnc2c1ncn2[C@@H]1O[C@H](CO)[C@@H](O)[C@H]1O`, for which, in assay [1], the Activity was 0.82.
Take `OCCN(CCO)c1ncnc2c1ncn2[C@@H]1O[C@H](CO)[C@@H](O)[C@H]1O`: the Activity in assay [1] turned out to be 1.02.
The same measure, in the same setting: under `CCCCCCCNc1ncnc2c1ncn2[C@@H]1O[C@H](CO)[C@@H](O)[C@H]1O` stands 0.62; under `Oc1ccc(CNc2ncnc3[nH]cnc23)cc1`, 1.34.
Still for that read-out and setting: to `CCOCCCNc1ncnc2c1ncn2[C@@H]1O[C@H](CO)[C@@H](O)[C@H]1O` belongs 1.26; to `CC(=O)Nc1cccc(Nc2ncnc3c2ncn3[C@@H]2O[C@H](COC(C)=O)[C@@H](OC(C)=O)[C@H]2OC(C)=O)c1`, 0.86.
`COc1ccc(CSc2ncnc3c2ncn3[C@@H]2O[C@H](CO)[C@@H](O)[C@H]2O)cc1`: in assay [1], the Activity amounted to 0.82.
For `OC[C@H]1O[C@@H](n2cnc3c(N4CCC(O)CC4)ncnc32)[C@H](O)[C@@H]1O`, in assay [1], the Activity amounted to 1.16.
In the case of `OCCNc1ncnc2[nH]cnc12`, the Activity in assay [1] is 0.99.
On to `CN(CCO)c1ncnc2c1ncn2[C@@H]1O[C@H](CO)[C@@H](O)[C@H]1O`, for which the Activity in assay [1] came out at 0.97.
On to `CCc1ccc(Cn2cnc3c(NCc4ccccc4)ncnc32)cc1`, for which the Activity in assay [1] amounted to 0.86.
On to `CC(CO)(CO)Nc1ncnc2c1ncn2[C@@H]1O[C@H](CO)[C@@H](O)[C@H]1O`, for which, in assay [1], the Activity was 1.03.
On to `CC(=O)OC[C@H]1O[C@@H](n2cnc3c(NCc4ccc(OC(C)=O)c(OC(C)=O)c4)ncnc32)[C@H](OC(C)=O)[C@@H]1OC(C)=O`, for which, in assay [1], the Activity amounted to 1.41.
Same read-out and setting: under `OC[C@H]1O[C@@H](n2cnc3c(SCc4ccccc4)ncnc32)[C@H](O)[C@@H]1O` stands 0.72.
Turning to `CC(=O)CC(C)(C)n1cnc2c(NCc3ccc4c(c3)OCO4)ncnc21`, the Activity in assay [1] was determined as 1.12.
Consider `Oc1ccc(CNc2ncnc3c2ncn3Cc2cccc(Cl)c2)cc1`, for which the Activity in assay [1] came to 1.05.
Consider `CCOc1ncnc2c1ncn2[C@@H]1O[C@H](CO)[C@@H](O)[C@H]1O`, for which the Activity in assay [1] is 0.78.
As for `OCCSc1ncnc2c1ncn2[C@@H]1O[C@H](CO)[C@@H](O)[C@H]1O`, in assay [1], the Activity amounted to 0.81.
Still for that read-out and setting: to `CCOC(=O)c1cccc(Nc2ncnc3c2ncn3[C@@H]2O[C@H](COC(C)=O)[C@@H](OC(C)=O)[C@H]2OC(C)=O)c1` belongs 1.07.
